In patent US9669051B2, “Dietary fiber compositions with metformin, sitagliptin, or a combination thereof for the treatment of metabolic disease” (Inovobiologic Inc., priority 2012, dated 2017):
Values belong to the compound of their own block, whether it stands above or below them.

Legend:
[1] = system: Zucker FA/FA Rat Model; assay: Example 7: non-fasted and 16 h fasted blood glucose; type: in vivo
Method: Glucose concentrations were determined using a hand-held glucose meter (e.g., Bayer Asencia Elite). Blood was collected via tail nick following sitagliptin administration; one sample was collected when food was available for the previous 24 hours (non-fasted), and one sample was collected on another day when food was not available overnight (16 h fasted).

[2] = system: Zucker FA/FA Rat Model; assay: Example 7: necropsy histopathology of liver, kidney and pancreas; type: in vivo; conditions: week 7 necropsy
Method: Rats were fasted overnight and given their regular sitagliptin treatment in the morning. Following the in-life procedures, rats were anesthetized with isoflurane, and a blood sample was collected via cardiac puncture. No peptidase inhibitors were used. Following sample collection, a limited necropsy was performed. A section of ileum (approximately one inch, collected one inch rostral to the cecum) was rinsed in chilled saline and flash frozen; this sample was analyzed for DPPIV mRNA. One kidney was flash-frozen for DPPIV mRNA analysis; one liver lobe was flash frozen for DPPIV activity and mRNA analysis. The pancreas (collected as a pancreatic pluck, with associated tissue including the remainder of the intestine), one liver lobe and one kidney were post-fixed for staining with hematoxylin and eosin. One liver lobe was snap-frozen for staining with Sudan Black. The tissue samples were forwarded to Histo-Scientific Research Laboratories Inc. (Mount Jackson, Va.) for histological processing and for pathological evaluation by a board-certified pathologist. The pathology analysis was based on the gross and microscopic evaluation of the liver (two lobes), right kidney and pancreas from 39 male rats.

[3] = system: Zucker FA/FA Rat Model; assay: Example 7: body composition by dual-energy X-ray absorptiometry (DEXA); type: in vivo
Method: Body composition was measured using dual-energy X-ray absorptiometry (DEXA) of the carcasses at the end of the study (i.e., after a limited necropsy for histopathology samples). The primary endpoints were fat mass, lean mass and bone mineral density. Tissue composition (i.e., % body fat) and fat free mass were also reported, but the information on these measurements was redundant with other measures.

[4] = system: Zucker FA/FA Rat Model; assay: Example 7: hemoglobin glycosylation (HbA1c); type: in vivo
Method: The extent of hemoglobin glycosylation was determined using a clinical analyzer (e.g., Bayer DCA2000). Blood samples for analysis were collected via tail nick.

[5] = system: Zucker FA/FA Rat Model; assay: Example 7: fasted oral glucose tolerance test (OGTT), glucose and serum insulin; type: in vivo; conditions: week 6, 16 h fasted
Excerpt: The remainder of the sample was allowed to clot, and centrifuged to separate serum. Serum samples were frozen for insulin analysis.

[6] = system: Zucker FA/FA Rat Model; assay: Example 7: body weight and food consumption; type: in vivo
Method: 44 young adult (9 week old) male rats (Zucker ZDF/Crl-Lepr^fa/fa), were obtained from Charles River Laboratories, Kingston, N.Y. […] The rats were housed in cages which conformed to size standards in Guide for the Care and Use of Laboratory Animals (Nat'l Res. Council, 1996). Bedding was changed at least twice per week. The animals were maintained at a temperature range of 18-22° C., humidity 44-68%, and a photoperiod of 12 hour light/dark cycle. The rats were acclimated for 4 days prior to the start of the study. Each animal was given a sequential number and was uniquely identified with a stainless steel ear tag or other appropriate, permanent method. Morbidity and mortality checks were carried out twice daily during the study. The animals were randomly assigned to one of four groups: (1) Control 5% cellulose fiber/chow [C]; (2) 5% PGX/chow [PGX]; […] Filtered tap water was available ad libitum. The test diets were nearly isoenergetic (PGX diet provided 3.98 kcal/g and cellulose diet provided 3.90 kcal/g). […] Sitagliptin was administered in the morning, with samples and data collected after treatment.

[7] = system: Zucker FA/FA Rat Model; assay: Example 7: lipid determinations; type: in vivo; conditions: finding in words, with reference to the cellulose control; listed as JANUVIA alone
Method: (§1) A blood sample was collected via retroorbital bleed (under isoflurane anesthesia) during the takedown phase. A portion of this sample was tested for lipid concentrations (total, LDL, and HDL cholesterol and triglycerides) using an analyzer (e.g., Polymer Technology Systems CardioChek PA). Plasma was separated by centrifugation and flash-frozen for DPPIV activity determination. The remainder was prepared for comprehensive clinical chemistry analysis.

[8] = system: Zucker FA/FA Rat Model; assay: Example 7: clinical chemistry of terminal blood sample; type: in vivo
Method: as §1

[9] = in words; cited from earlier work
[10] = finding in words, with reference to the cellulose control, listed as JANUVIA alone
[11] = finding in words, with reference to the cellulose control

Calcium ([8]; terminal blood sample, week 7): 11.2 ± 0.2 mg/dL
Creatine kinase ([8]; terminal blood sample, week 7): 76.3 ± 12.8 IU/L
Phosphorus ([8]; terminal blood sample, week 7): 6.0 ± 0.2 mg/dL
SMILES: N[C@@H](CC(=O)N1CCn2c(nnc2C(F)(F)F)C1)Cc1cc(F)c(F)cc1F [Cellulose-JANUVIA, (R)-4-oxo-4-[3-(trifluoromethyl)-5,6-dihydro[1,2,4]triazolo[4,3-a]pyrazin-7(8H)-yl]-1-(2,4,5-trifluorophenyl)butan-2-amine]
16 h fasted blood glucose ([1]; Baseline): 98.4 ± 5.4 mg/dL
Non-fasted blood glucose ([1]; Baseline): 231.8 ± 31.2 mg/dL
16 h fasted blood glucose ([1]; Week 6): 331.1 ± 16.4 mg/dL
Non-fasted blood glucose ([1]; Week 6): 500.9 ± 17.4 mg/dL
Kidney: degeneration/regeneration, tubules, group incidence ([2]; animals affected/examined): 9/9
Kidney: dilatation, tubules, group incidence ([2]; animals affected/examined): 9/9
Kidney: dilation, renal pelvis, group incidence ([2]; animals affected/examined): 9/9
Kidney: inflammation, renal pelvis, group incidence ([2]; animals affected/examined): 2/9
Kidney: mesangial expansion, group incidence ([2]; animals affected/examined): 9/9
Kidney: mineralization, renal pelvis, group incidence ([2]; animals affected/examined): 2/9
Liver: Sudan black positive hepatocytes, group incidence ([2]; animals affected/examined): 9/9
Liver: cystic hepatocytes degeneration with fibrosis, group incidence ([2]; animals affected/examined): 1/9
Liver: hepatic focal infarction, group incidence ([2]; animals affected/examined): 1/9
Liver: vacuolation, hepatocytes, macrovesicular, group incidence ([2]; animals affected/examined): 7/9
Liver: vacuolation, hepatocytes, microvesicular, group incidence ([2]; animals affected/examined): 9/9
Pancreas: fibrosis, islets, group incidence ([2]; animals affected/examined): 9/9
Pancreas: hemorrhage/hemosiderin, islets, group incidence ([2]; animals affected/examined): 9/9
Pancreas: hypertrophy, islets, group incidence ([2]; animals affected/examined): 9/9
Pancreas: islet cell degeneration, group incidence ([2]; animals affected/examined): 9/9
Pancreas: mononuclear cell infiltrate, islets, group incidence ([2]; animals affected/examined): 9/9
Pancreas: percent of islet area containing positive insulin positive cells ([2]; group average): 40%
Liver: Sudan black positive hepatocytes, group average score ([2]; score 0-5): 2.8
Kidney: degeneration/regeneration, tubules, group average score ([2]; severity score 0-5): 2.3
Kidney: dilatation, tubules, group average score ([2]; severity score 0-5): 2.8
Kidney: dilation, renal pelvis, group average score ([2]; severity score 0-5): 2.3
Kidney: inflammation, renal pelvis, group average score ([2]; severity score 0-5): 0.8
Kidney: mesangial expansion, group average score ([2]; severity score 0-5): 2.1
Kidney: mineralization, renal pelvis, group average score ([2]; severity score 0-5): 0.2
Liver: cystic hepatocytes degeneration with fibrosis, group average score ([2]; severity score 0-5): 0.1
Liver: hepatic focal infarction, group average score ([2]; severity score 0-5): 0.2
Liver: vacuolation, hepatocytes, macrovesicular, group average score ([2]; severity score 0-5): 0.9
Liver: vacuolation, hepatocytes, microvesicular, group average score ([2]; severity score 0-5): 2.6
Pancreas: fibrosis, islets, group average score ([2]; severity score 0-5): 2.1
Pancreas: hemorrhage/hemosiderin, islets, group average score ([2]; severity score 0-5): 1.1
Pancreas: hypertrophy, islets, group average score ([2]; severity score 0-5): 3.8
Pancreas: islet cell degeneration, group average score ([2]; severity score 0-5): 1.4
Pancreas: mononuclear cell infiltrate, islets, group average score ([2]; severity score 0-5): 1.0
Fat free mass ([3]; DEXA at end of study): 133.0 ± 5.6 g
Tissue composition (% fat) ([3]; DEXA at end of study): 63.3 ± 0.9 % fat
Lean Mass (terminal) [3, 10]: did not show an effect on lean body mass
Hemoglobin glycosylation ([4]; Baseline): 4.4 ± 0.1%
Hemoglobin glycosylation ([4]; Week 6): 6.8 ± 0.4%
OGTT serum insulin Baseline ([5]; before glucose): 6.6 ± 1.1 ng/mL
OGTT blood glucose Baseline ([5]; before glucose 1 g/kg PO): 331 ± 16.4 mg/dL
OGTT serum insulin AUC(0-120), baseline-subt ([5]; glucose 1 g/kg PO): -3.0 ± 22.7 ng·h/dL
Baseline body weight ([6]; Baseline): 297.9 ± 3.7 g
Mean food consumption ([6]; averaged for each rat over the study): 22.9 ± 0.7 g/day
Week 7 body weight ([6]; week 7): 411.0 ± 16.1 g
total cholesterol (week 7) [7]: not effective to lower blood cholesterol
Serum ALT/SGPT (terminal) [8, 11]: tended to decrease ALT activity
Serum albumin (terminal) [8, 11]: did not increase albumin concentrations
Serum alkaline phosphatase (terminal) [8, 11]: significantly reduced alkaline phosphatase activity
total serum protein (terminal) [8, 11]: did not increase total protein concentrations
blood urea nitrogen (terminal) [8, 10]: tended to decrease BUN

SMILES: N[C@@H](CC(=O)N1CCn2c(nnc2C(F)(F)F)C1)Cc1cc(F)c(F)cc1F [Sitagliptin phosphate monohydrate, 7-[(3R)-3-amino-1-oxo-4-(2,4,5-trifluorophenyl)buty]-5,6,7,8-tetrahydro-3-(trifluoromethyl)-1,2,4-triazolo[4,3-a]pyrazine phosphate (1:1) monohydrate]
Solubility in water [9]: soluble in water
